Assay results taken from patent US10968225B2, “Compounds and compositions for the treatment of cystic fibrosis” (Fondazione Istituto Italiano Di Tecnologia, priority 2017, dated 2021).
Where a name gives a salt, the structure may show the parent alone.

Biological target: T1, mutant CFTR (Homo sapiens, UniProt P13569, DEL508-508)
T1 construct: expressed in transfected cells
Assay: Fluorescence (HS-YFP) assay for CFTR activity, corrector assay
Format: cell-based
Conditions: CFBE41o- and FRT cells with stable expression of mutant CFTR, read-out: activity (EC50)

T1 sequence (P13569 with tags, fused parts or gaps DEL508-508): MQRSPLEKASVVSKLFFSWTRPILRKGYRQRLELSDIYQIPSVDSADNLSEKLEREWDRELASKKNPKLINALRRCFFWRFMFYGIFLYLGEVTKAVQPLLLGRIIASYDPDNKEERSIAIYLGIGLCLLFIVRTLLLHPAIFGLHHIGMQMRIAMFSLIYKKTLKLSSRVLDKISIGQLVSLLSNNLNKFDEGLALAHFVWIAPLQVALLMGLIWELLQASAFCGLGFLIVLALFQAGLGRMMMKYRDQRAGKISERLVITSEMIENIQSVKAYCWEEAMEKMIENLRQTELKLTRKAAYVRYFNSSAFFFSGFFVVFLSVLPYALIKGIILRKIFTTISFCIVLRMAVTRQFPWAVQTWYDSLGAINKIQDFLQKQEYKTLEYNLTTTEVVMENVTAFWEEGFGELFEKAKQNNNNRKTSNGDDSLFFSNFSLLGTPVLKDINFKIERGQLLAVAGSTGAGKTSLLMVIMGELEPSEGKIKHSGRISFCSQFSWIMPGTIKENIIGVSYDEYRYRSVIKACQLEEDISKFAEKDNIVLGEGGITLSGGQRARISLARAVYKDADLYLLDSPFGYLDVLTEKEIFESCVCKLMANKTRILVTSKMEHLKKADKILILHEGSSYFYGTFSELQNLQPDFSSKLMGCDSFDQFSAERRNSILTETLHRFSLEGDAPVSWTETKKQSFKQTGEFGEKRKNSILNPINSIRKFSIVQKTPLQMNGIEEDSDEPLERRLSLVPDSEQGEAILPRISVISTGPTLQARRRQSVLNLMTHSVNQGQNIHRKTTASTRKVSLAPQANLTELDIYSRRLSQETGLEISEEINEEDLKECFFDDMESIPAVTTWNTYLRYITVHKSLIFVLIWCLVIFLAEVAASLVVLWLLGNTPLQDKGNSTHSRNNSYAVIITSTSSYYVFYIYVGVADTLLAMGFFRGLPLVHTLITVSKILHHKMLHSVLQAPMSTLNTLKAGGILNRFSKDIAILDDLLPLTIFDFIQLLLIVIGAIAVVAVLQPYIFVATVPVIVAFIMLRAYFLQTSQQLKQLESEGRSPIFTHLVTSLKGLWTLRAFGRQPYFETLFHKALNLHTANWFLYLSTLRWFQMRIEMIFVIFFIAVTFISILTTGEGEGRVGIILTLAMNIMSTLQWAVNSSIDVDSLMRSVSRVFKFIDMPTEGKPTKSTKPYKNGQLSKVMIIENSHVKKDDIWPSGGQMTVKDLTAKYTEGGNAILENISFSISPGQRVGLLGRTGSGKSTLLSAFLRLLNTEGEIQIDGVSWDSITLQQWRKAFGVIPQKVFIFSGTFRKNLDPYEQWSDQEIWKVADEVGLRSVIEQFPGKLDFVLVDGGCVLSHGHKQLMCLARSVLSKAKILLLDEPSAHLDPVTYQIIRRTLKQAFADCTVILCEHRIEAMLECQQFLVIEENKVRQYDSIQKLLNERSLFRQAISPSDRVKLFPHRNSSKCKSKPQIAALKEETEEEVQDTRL

Compound	EC50 [nM]
COc1cc(NC(=O)c2cccc(-n3nc(C(F)(F)F)c4c3CCN(C(=O)C(C)(C)C)C4)c2)ccn1 [Compound 083, 3-[5-(2,2-Dimethylpropanoyl)-3-(trifluoromethyl)-6,7-dihydro-4Hpyrazolo[4,3-c]pyridin-1-yl]-N-(2-methoxy-4-pyridyl)benzamide]	> 2000
CN(C(=O)c1cccc(-n2nc(C(F)(F)F)c3c2C(Oc2ccc(C(=O)O)cc2)CCC3)c1)c1ccnc(C(F)(F)F)c1 (racemic) [Compound 315, 4-[[1-[3-[Methyl-[2-(trifluoromethyl)-4-pyridyl]carbamoyl]phenyl]-3-(trifluoromethyl)-4,5,6,7-tetrahydroindazol-7-yl]oxy]benzoic acid]	1000 to 2000
CN(C(=O)c1cccc(-n2nc(C(F)(F)F)c3c2C(Oc2ccc(C(=O)O)nn2)CCC3)c1)c1ccc2c(c1)OC(F)(F)O2 (racemic) [Compound 302, 6-[[1-[3-[(2,2-Difluoro-1,3-benzodioxol-5-yl)-methyl-carbamoyl]phenyl]-3-(trifluoromethyl)-4,5,6,7-tetrahydroindazol-7-yl]oxy]pyridazine-3-carboxylic acid]	> 2000
CN(C(=O)c1cccc(-n2nc(C(F)(F)F)c3c2C(Oc2cccc(C(=O)O)c2)CCC3)c1)c1ccc2c(c1)OC(F)(F)O2 (single isomer, unassigned) [Compound 188, (S) or (R)-3-[[1-[3-[(2,2-Difluoro-1,3-benzodioxol-5-yl)-methyl-carbamoyl]phenyl]-3-(trifluoromethyl)-4,5,6,7-tetrahydroindazol-7-yl]oxy]benzoic acid]	< 1000
CN(C(=O)c1cccc(-n2nc(C(F)(F)F)c3c2C(Oc2ccc(C(=O)O)cc2)CNC3)c1)c1ccc2c(c1)OC(F)(F)O2 (racemic) [Compound 273, 4-[[1-[3-[(2,2-Difluoro-1,3-benzodioxol-5-yl)-methyl-carbamoyl]phenyl]-3-(trifluoromethyl)-4,5,6,7-tetrahydropyrazolo[4,3-c]pyridin-7-yl]oxy]benzoic acid hydrochloride]	< 1000
Cc1noc(C)c1S(=O)(=O)N1CCc2c(c(C(F)(F)F)nn2-c2cccc(C(=O)N(C)c3ccc4c(c3)OC(F)(F)O4)c2)C1 [Compound 096, N-(2,2-Difluoro-1,3-benzodioxol-5-yl)-3-[5-(3,5-dimethylisoxazol-4-yl)sulfonyl-3-(trifluoromethyl)-6,7-dihydro-4H-pyrazolo[4,3-c]pyridin-1-yl]-N-methyl-benzamide]	< 1000
CN(C(=O)c1cccc(-n2nc(C(F)(F)F)c3c2C(Oc2ccc(C(=O)O)cn2)COC3)c1)c1ccc2c(c1)OC(F)(F)O2 (single isomer, unassigned) [Compound 277, (S) or (R)-6-[[1-[3-[(2,2-difluoro-1,3-benzodioxol-5-yl)-methyl-carbamoyl]phenyl]-3-(trifluoromethyl)-6,7-dihydro-4H-pyrano[4,3-c]pyrazol-7-yl]oxy]pyridine-3-carboxylic acid]	< 1000
CC(C)N1CCc2c(c(C(F)(F)F)nn2-c2cccc(C(=O)N(C)c3ccc4c(c3)OCO4)c2)C1 [Compound 021, N-(1,3-Benzodioxol-5-yl)-3-[5-isopropyl-3-(trifluoromethyl)-6,7-dihydro-4H-pyrazolo[4,3-c]pyridin-1-yl]-N-methyl-benzamide]	< 1000
CN(C(=O)c1cccc(-n2nc(C(F)(F)F)c3c2C(Oc2cc(C(=O)O)ccn2)CCC3)c1)c1ccc2c(c1)OC(F)(F)O2 (stereo not drawn) [Compound 182, 2-[[1-[3-[(2,2-Difluoro-1,3-benzodioxol-5-yl)-methyl-carbamoyl]phenyl]-3-(trifluoromethyl)-4,5,6,7-tetrahydroindazol-7-yl]oxy]pyridine-4-carboxylic acid]	< 1000
CN(C(=O)c1cccc(-n2nc(C(F)(F)F)c3c2C(Oc2ccc(C(=O)O)cc2)COC3)c1)c1ccc2c(c1)OC(F)(F)O2 (single isomer, unassigned) [Compound 205, (R) or (S)-4-[[1-[3-[(2,2-Difluoro-1,3-benzodioxol-5-yl)-methyl-carbamoyl]phenyl]-3-(trifluoromethyl)-6,7-dihydro-4H-pyrano[4,3-c]pyrazol-7-yl]oxy]benzoic acid]	< 1000
CN(C(=O)c1cccc(-n2nc(C(F)(F)F)c3c2C(Oc2ccc(C(=O)O)cc2)CCC3)c1)c1cnc(OC(F)F)nc1 (racemic) [Compound 219, 4-[[1-[3-[[2-(Difluoromethoxy)pyrimidin-5-yl]-methyl-carbamoyl]phenyl]-3-(trifluoromethyl)-4,5,6,7-tetrahydroindazol-7-yl]oxy]benzoic acid]	1000 to 2000
CN(C(=O)c1cccc(-n2nc(C(F)(F)F)c3c2C(Oc2ccc(C(=O)O)cc2)CCC3)c1)c1ccnc(OC(F)F)c1 (single isomer, unassigned) [Compound 288, (R) or (S)-4-[[1-[3-[[2-(Difluoromethoxy)-4-pyridyl]-methyl-carbamoyl]phenyl]-3-(trifluoromethyl)-4,5,6,7-tetrahydroindazol-7-yl]oxy]benzoic acid]	< 1000
COC(=O)c1ccc(S(=O)(=O)N2CCc3c(C(F)(F)F)nn(-c4cccc(C(=O)N(C)c5ccc6c(c5)OCO6)c4)c3C2)cc1 [Compound 075, Methyl 4-[[1-[3-[1,3-benzodioxol-5-yl(methyl)carbamoyl]phenyl]-3-(trifluoromethyl)-5,7-dihydro-4H-pyrazolo[3,4-c]pyridin-6-yl]sulfonyl]benzoate]	< 1000
CN(C(=O)c1cccc(-n2nc(C(F)(F)F)c3c2C(Oc2ccc(C(=O)O)cc2)COC3)c1)c1ccnc(OC(F)F)c1 (single isomer, unassigned) [Compound 290, (R) or (S)-4-[[1-[3-[[2-(Difluoromethoxy)-4-pyridyl]-methyl-carbamoyl]phenyl]-3-(trifluoromethyl)-6,7-dihydro-4H-pyrano[4,3-c]pyrazol-7-yl]oxy]benzoic acid]	< 1000
COc1cc(OC2CCCc3c(C(F)(F)F)nn(-c4cccc(C(=O)N(C)c5ccc6c(c5)OC(F)(F)O6)c4)c32)ccc1C(=O)O (stereo not drawn) [Compound 161, 4-[[1-[3-[(2,2-Difluoro-1,3-benzodioxol-5-yl)-methyl-carbamoyl]phenyl]-3-(trifluoromethyl)-4,5,6,7-tetrahydroindazol-7-yl]oxy]-2-methoxy-benzoic acid]	< 1000
CN(C(=O)c1cccc(-n2nc(C(F)(F)F)c3c2CN(C(=O)C(C)(C)C)CC3)c1)c1ccc2c(c1)OCO2 [Compound 072, N-(1,3-Benzodioxol-5-yl)-3-[6-(2,2-dimethylpropanoyl)-3-(trifluoromethyl)-5,7-dihydro-4H-pyrazolo[3,4-c]pyridin-1-yl]-N-methyl-benzamide]	< 1000
CN(C(=O)c1cccc(-n2nc(C(F)(F)F)c3c2C(Oc2cccc(C(=O)O)c2)CCC3)c1)c1ccc2c(c1)OC(F)(F)O2 (stereo not drawn) [Compound 170, 3-[[1-[3-[(2,2-Difluoro-1,3-benzodioxol-5-yl)-methyl-carbamoyl]phenyl]-3-(trifluoromethyl)-4,5,6,7-tetrahydroindazol-7-yl]oxy]benzoic acid]	< 1000
Cc1cn2cc(NC(=O)c3cccc(-n4nc(C(F)(F)F)c5c4CCN(C(=O)C(C)(C)C)C5)c3)ccc2n1 [Compound 084, 3-[5-(2,2-Dimethylpropanoyl)-3-(trifluoromethyl)-6,7-dihydro-4H-pyrazolo[4,3-c]pyridin-1-yl]-N-(2-methylimidazo [1,2-a]pyridin-6-yl)benzamide]	> 2000
CN(C(=O)c1cccc(-n2nc(C(F)(F)F)c3c2CCN(S(=O)(=O)c2ccccc2)C3)c1)c1ccc2c(c1)OCO2 [Compound 007, 3-[5-(Benzenesulfonyl)-3-(trifluoromethyl)-6,7-dihydro-4H-pyrazolo[4,3-c]pyridin-1-yl]-N-(1,3-benzodioxol-5-yl)-N-methyl-benzamide]	< 1000
CN(C(=O)c1cccc(-n2nc(C(F)(F)F)c3c2C(Oc2ccc(C(=O)O)cc2)CCC3)c1)c1cnc2c(c1)OCC2 (single isomer, unassigned) [Compound 276, (R) or (S)-4-[[1-[3-[2,3-Dihydrofuro[3,2-b]pyridin-6-yl(methyl)carbamoyl]phenyl]-3-(trifluoromethyl)-4,5,6,7-tetrahydroindazol-7-yl]oxy]benzoic acid]	1000 to 2000
Cc1cn2cc(N(C)C(=O)c3cccc(-n4nc(C(F)(F)F)c5c4CCN(C(=O)C(C)(C)C)C5)c3)ccc2n1 [Compound 091, 3-[5-(2,2-Dimethylpropanoyl)-3-(trifluoromethyl)-6,7-dihydro-4H-pyrazolo[4,3-c]pyridin-1-yl]-N-methyl-N-(2-methylimidazo[1,2-a]pyridin-6-yl)benzamide]	1000 to 2000
COC(=O)c1ccc(S(=O)(=O)N2CCc3c(c(C(F)(F)F)nn3-c3cccc(C(=O)N(C)c4ccc5c(c4)OCO5)c3)C2)cc1 [Compound 055, Methyl 4-[[1-[3-[1,3-benzodioxol-5-yl(methyl)carbamoyl]phenyl]-3-(trifluoromethyl)-6,7-dihydro-4H-pyrazolo[4,3-c]pyridin-5-yl]sulfonyl]benzoate]	< 1000
CN(C(=O)c1cccc(-n2nc(C(F)(F)F)c3c2C[C@H]2CC[C@@H]3N2C)c1)c1ccc2c(c1)OCO2 (single isomer, unassigned) [Compound 050, (4R,7S)- or (4S,7R)—N-(Benzo[d][1,3]dioxol-5-yl)-N-methyl-3-(9-methyl-3-(trifluoromethyl)-5,6,7,8-tetrahydro-4,7-epiminocyclohepta[c]pyrazol-1(4H)-yl)benzamide]	< 1000
CN(C(=O)c1cccc(-n2nc(C(F)(F)F)c3c2CCN(CC2CC2)C3)c1)c1ccc2c(c1)OCO2 [Compound 019, N-(1,3-Benzodioxol-5-yl)-3-[5-(cyclopropylmethyl)-3-(trifluoromethyl)-6,7-dihydro-4H-pyrazolo[4,3-c]pyridin-1-yl]-N-methyl-benzamide]	< 1000
